Experiments:
human σ1 receptor = target: T1, human σ1 receptor (Homo sapiens, UniProt Q99720); test: Human σ1 receptor radioligand assay; settings: transfected HEK-293 membranes, 5 nM [3H](+)-pentazocine, 37° C. 120 minutes; + may also stand for 1-50% inhibition at 1 or 10 μM; read-out: Binding σ-1 Ki
T1 construct: expressed in transfected cells; host or cells: HEK-293
Procedure, shortened: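 Membranes (7 μg) were incubated with 5 nM [3H](+)-pentazocine in 50 mM Tris-HCl pH 8 for 120 min at 37° C. Non-specific binding was defined with 10 μM haloperidol. Values are % inhibition at 1 or 10 μM or Ki from five concentrations, read by filtration and scintillation counting.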

human σ2/TMEM97 receptor = target: T2, human σ2/TMEM97 receptor (Homo sapiens, UniProt Q5BJF2); test: Binding assay to human σ2/TMEM97 receptor; settings: transfected HEK-293 membranes, 10 nM [3H]-DTG, 25° C. 120 minutes; + may also stand for 1-50% inhibition at 1 or 10 μM; read-out: Binding σ-2 Ki
T2 construct: expressed in transfected cells; host or cells: HEK-293
Procedure, shortened: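 Membranes from transfected HEK-293 cells (15 µg) were incubated with 10 nM [3H]-DTG in 50 mM Tris-HCl pH 8.0 for 120 min at 25 °C, with 10 µM haloperidol defining non-specific binding. Filtration and scintillation counting followed. Compounds tested as % inhibition at 1 or 10 µM, or at five concentrations for Ki.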

T1 sequence (Q99720 whole entry): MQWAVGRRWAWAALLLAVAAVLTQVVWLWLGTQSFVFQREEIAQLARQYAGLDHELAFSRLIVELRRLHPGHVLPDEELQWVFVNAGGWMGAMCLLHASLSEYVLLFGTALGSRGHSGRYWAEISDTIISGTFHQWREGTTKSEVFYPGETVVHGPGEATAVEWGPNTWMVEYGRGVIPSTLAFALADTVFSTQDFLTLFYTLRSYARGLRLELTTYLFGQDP
T2 sequence (Q5BJF2 whole entry): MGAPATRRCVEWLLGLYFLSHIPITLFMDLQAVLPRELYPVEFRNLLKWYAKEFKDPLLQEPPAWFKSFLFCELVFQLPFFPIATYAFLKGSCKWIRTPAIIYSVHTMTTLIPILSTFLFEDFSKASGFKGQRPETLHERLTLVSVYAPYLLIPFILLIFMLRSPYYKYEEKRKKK

SMILES	Ki (human σ1 receptor)	Ki (human σ2/TMEM97 receptor)
CC(C)CCN1CCC2(CC1)CCN(S(=O)(=O)c1ccc(C(F)(F)F)nc1)CC2 [Example 93, 3-Isopentyl-9-((6-(trifluoromethyl)pyridin-3-yl)sulfonyl)-3,9-diazaspiro[5.5]undecane]	< 100 nM	< 100 nM
CNc1ccc(S(=O)(=O)N2CCCC3(CCN(CCC(C)(C)C)CC3)C2)cn1 [Example 94, 5-((9-(3,3-Dimethylbutyl)-2,9-diazaspiro[5.5]undecan-2-yl)sulfonyl)-N-methylpyridin-2-amine]	100 to 500 nM	< 100 nM
CC(C)(C)CCN1CCC2(CCCN(S(=O)(=O)c3ccc(N4CCC5(CCOC5)CC4)nc3)C2)CC1 [Example 95, 8-(5-((9-(3,3-Dimethylbutyl)-2,9-diazaspiro[5.5]undecan-2-yl)sulfonyl)pyridin-2-yl)-2-oxa-8-azaspiro[4.5]decane]	< 100 nM	< 100 nM
CC(C)(C)CCN1CCC2(CCCN(S(=O)(=O)c3ccc(N4CCC(F)(F)CC4)nc3)C2)CC1 [Example 96, 2-((6-(4,4-Difluoropiperidin-1-yl)pyridin-3-yl)sulfonyl)-9-(3,3-dimethylbutyl)-2,9-diazaspiro[5.5]undecane]	< 100 nM	< 100 nM
CN(C)c1ccc(S(=O)(=O)N2CCCC3(CCN(CCC(C)(C)C)CC3)C2)cn1 [Example 97, 5-((9-(3,3-Dimethylbutyl)-2,9-diazaspiro[5.5]undecan-2-yl)sulfonyl)-N,N-dimethylpyridin-2-amine]	< 100 nM	< 100 nM
CC(C)(C)CCN1CCC2(CCCN(S(=O)(=O)c3ccc(N4CCC5(CCCO5)CC4)nc3)C2)CC1 [Example 98, 8-(5-((9-(3,3-Dimethylbutyl)-2,9-diazaspiro[5.5]undecan-2-yl)sulfonyl)pyridin-2-yl)-1-oxa-8-azaspiro[4.5]decane]	< 100 nM	< 100 nM
CC(C)(C)CN1CCC2(CC1)CCN(S(=O)(=O)c1ccc(N3CCC(F)(F)CC3)nc1)CC2 [Example 99, 3-((6-(4,4-Difluoropiperidin-1-yl)pyridin-3-yl)sulfonyl)-9-neopentyl-3,9-diazaspiro[5.5]undecane]	100 to 500 nM	< 100 nM
CN(CC(C)(C)C)C1CCN(S(=O)(=O)c2ccc(N3CCC(F)(F)CC3)nc2)CC1 [Example 100, 1-((6-(4,4-Difluoropiperidin-1-yl)pyridin-3-yl)sulfonyl)-N-methyl-N-neopentylpiperidin-4-amine]	< 100 nM	< 100 nM
O=S(=O)(c1ccc(N2CCC(F)(F)CC2)nc1)N1CCCC2(CCN(CC3CCOCC3)CC2)C1 [Example 101, 2-((6-(4,4-Difluoropiperidin-1-yl)pyridin-3-yl)sulfonyl)-9-((tetrahydro-2H-pyran-4-yl)methyl)-2,9-diazaspiro[5.5]undecane]	< 100 nM	< 100 nM
CC(=O)N(C)c1ccc(S(=O)(=O)N2CCCC3(CCN(CCC(C)(C)C)CC3)C2)cn1 [Example 102, N-(5-((9-(3,3-Dimethylbutyl)-2,9-diazaspiro[5.5]undecan-2-yl)sulfonyl)pyridin-2-yl)-N-methylacetamide]	100 to 500 nM	< 100 nM
CC(=O)N(C)c1ccc(S(=O)(=O)N2CCC3(CCN(CCC(C)(C)C)CC3)CC2)cn1 [Example 103, N-(5-((9-(3,3-Dimethylbutyl)-3,9-diazaspiro[5.5]undecan-3-yl)sulfonyl)pyridin-2-yl)-N-methylacetamide]	100 to 500 nM	< 100 nM
CCC(=O)N(C)c1ccc(S(=O)(=O)N2CCCC3(CCN(CCC(C)(C)C)CC3)C2)cn1 [Example 104, N-(5-((9-(3,3-Dimethylbutyl)-2,9-diazaspiro[5.5]undecan-2-yl)sulfonyl)pyridin-2-yl)-N-methylpropionamide]	100 to 500 nM	< 100 nM
CCC(=O)N(C)c1ccc(S(=O)(=O)N2CCC3(CCN(CCC(C)(C)C)CC3)CC2)cn1 [Example 105, N-(5-((9-(3,3-Dimethylbutyl)-3,9-diazaspiro[5.5]undecan-3-yl)sulfonyl)pyridin-2-yl)-N-methylpropionamide]	100 to 500 nM	< 100 nM
CCC(=O)Nc1ccc(S(=O)(=O)N2CCCC3(CCN(CCC(C)(C)C)CC3)C2)cn1 [Example 106, N-(5-((9-(3,3-Dimethylbutyl)-2,9-diazaspiro[5.5]undecan-2-yl)sulfonyl)pyridin-2-yl)propionamide]	< 100 nM	< 100 nM
CC(=O)Nc1ccc(S(=O)(=O)N2CCCC3(CCN(CCC(C)(C)C)CC3)C2)cn1 [Example 107, N-(5-((9-(3,3-Dimethylbutyl)-2,9-diazaspiro[5.5]undecan-2-yl)sulfonyl)pyridin-2-yl)acetamide]	100 to 500 nM	< 100 nM
Cc1ccc(S(=O)(=O)N2CCCC3(CCN(CCC(C)(C)C)CC3)C2)cn1 [Example 108, 9-(3,3-Dimethylbutyl)-2-((6-methylpyridin-3-yl)sulfonyl)-2,9-diazaspiro[5.5]undecane]	< 100 nM	< 100 nM

SMILES	Ki (human σ1 receptor)	Ki (human σ2/TMEM97 receptor)
CCc1ccc(S(=O)(=O)N2CCC3(CCN(CCC(C)(C)C)CC3)CC2)cn1 [Example 109, 3-(3,3-Dimethylbutyl)-9-((6-ethylpyridin-3-yl)sulfonyl)-3,9-diazaspiro[5.5]undecane]	< 100 nM	< 100 nM
Cc1ccc(S(=O)(=O)N2CCC3(CCN(CCC(C)(C)C)CC3)CC2)cn1 [Example 110, 3-(3,3-Dimethylbutyl)-9-((6-methylpyridin-3-yl)sulfonyl)-3,9-diazaspiro[5.5]undecane]	< 100 nM	< 100 nM
CCc1ccc(S(=O)(=O)N2CCCC3(CCN(CCC(C)(C)C)CC3)C2)cn1 [Example 111, 9-(3,3-Dimethylbutyl)-2-((6-ethylpyridin-3-yl)sulfonyl)-2,9-diazaspiro[5.5]undecane]	< 100 nM	< 100 nM
CC(C)(C)CCN1CCC2(CCCN(S(=O)(=O)c3ccc(-c4ccncc4)nc3)C2)CC1 [Example 112, 2-([2,4′-Bipyridin]-5-ylsulfonyl)-9-(3,3-dimethylbutyl)-2,9-diazaspiro[5.5]undecane]	< 100 nM	< 100 nM
CC(C)(C)CCN1CCC2(CC1)CCN(S(=O)(=O)c1ccc(-c3ccncc3)nc1)CC2 [Example 113, 3-([2,4′-Bipyridin]-5-ylsulfonyl)-9-(3,3-dimethylbutyl)-3,9-diazaspiro[5.5]undecane]	100 to 500 nM	< 100 nM
CC(C)(C)CCN1CCC2(CC1)CCN(S(=O)(=O)c1ccc(-c3ccncc3)nc1)C2 [Example 114, 2-([2,4′-Bipyridin]-5-ylsulfonyl)-8-(3,3-dimethylbutyl)-2,8-diazaspiro[4.5]decane]	< 100 nM	< 100 nM
CC(C)(C)CCN1CCCC2(CCN(S(=O)(=O)c3ccc(-c4ccncc4)nc3)CC2)C1 [Example 115, 9-([2,4′-Bipyridin]-5-ylsulfonyl)-2-(3,3-dimethylbutyl)-2,9-diazaspiro[5.5]undecane]	< 100 nM	< 100 nM
CC(C)(C)CCN1CCC2(CCCN(S(=O)(=O)c3ccc(C4CCOCC4)nc3)C2)CC1 [Example 116, 9-(3,3-Dimethylbutyl)-2-((6-(tetrahydro-2H-pyran-4-yl)pyridin-3-yl)sulfonyl)-2,9-diazaspiro[5.5]undecane]	< 100 nM	< 100 nM
CC(C)(C)CCN1CCC2(CC1)CCN(S(=O)(=O)c1ccc(C3CCOCC3)nc1)CC2 [Example 117, 3-(3,3-Dimethylbutyl)-9-((6-(tetrahydro-2H-pyran-4-yl)pyridin-3-yl)sulfonyl)-3,9-diazaspiro[5.5]undecane]	100 to 500 nM	< 100 nM
CC(C)(C)CCN1CCC2(CCCN(S(=O)(=O)c3ccc(N4CCS(=O)(=O)CC4)nc3)C2)CC1 [Example 118, 4-(5-((9-(3,3-Dimethylbutyl)-2,9-diazaspiro[5.5]undecan-2-yl)sulfonyl)pyridin-2-yl)thiomorpholine 1,1-dioxide]	100 to 500 nM	< 100 nM
CN(Cc1ccc(F)cc1)[C@H]1CC[C@H](NS(=O)(=O)c2ccc(N3CCOCC3)cn2)CC1 [Example 119, N-((1r,4r)-4-((4-Fluoro-benzyl)(methyl)amino)cyclo-hexyl)-5-morpholinopyridine-2-sulfonamide]	> 1000 nM	< 100 nM
CC(C)(C)CCN1CCC2(CCCN(S(=O)(=O)c3ccc(N4CCOCC4=O)nc3)C2)CC1 [Example 120, 4-(5-((9-(3,3-Dimethylbutyl)-2,9-diazaspiro[5.5]undecan-2-yl)sulfonyl)pyridin-2-yl)morpholin-3-one]	100 to 500 nM	< 100 nM
CC(C)(C)CCN1CCC2(CCCN(S(=O)(=O)c3ccc(N4CCCC4=O)nc3)C2)CC1 [Example 121, 1-(5-((9-(3,3-Dimethylbutyl)-2,9-diazaspiro[5.5]undecan-2-yl)sulfonyl)pyridin-2-yl)pyrrolidin-2-one]	< 100 nM	< 100 nM
CC(C)(C)CCN1CCC2(CCCN(S(=O)(=O)c3ccc(N4CCCCC4=O)nc3)C2)CC1 [Example 122, 1-(5-((9-(3,3-Dimethylbutyl)-2,9-diazaspiro[5.5]undecan-2-yl)sulfonyl)pyridin-2-yl)piperidin-2-one]	100 to 500 nM	< 100 nM
CC(C)(C)CCN1CCC2(CCCN(S(=O)(=O)c3ccc(N4CCOC4=O)nc3)C2)CC1 [Example 123, 3-(5-((9-(3,3-Dimethylbutyl)-2,9-diazaspiro[5.5]undecan-2-yl)sulfonyl)pyridin-2-yl)oxazolidin-2-one]	100 to 500 nM	< 100 nM

Reference: US20240254115A1 (ACONDICIONAMIENTO TARRASENSE, priority 2021, published 2024)
